The values that follow come from patent US20260042764A1, “COMPOSITIONS AND METHODS FOR INHIBITION OF KRAS” (TheRas, Inc., priority 2022, published 2026).

Where only a bound is given, the exact number is not on record here.

In general, IC50 refers to the point on the concentration scale where inhibition reaches its midpoint. A higher IC50 goes with weaker potency in that assay.

The target in test [1] is T1, Avi-KRAS G12V (2-169) GTP/RAF1 RBD-3xFLAG (51-131) (Homo sapiens, UniProt P01116, G12V).
T1 construct: Avi-KRAS G12V (2-169)
Briefly: Raf1-KRAS G12V-GTP disruption HTRF assay (Biological Example 3). The class given is binding. The note with it: KRAS G12V, GTP-loaded. The procedure, abridged:
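Compounds were titrated 10-point, 3-fold from 30 μM against preformed KRAS-GTP:RAF1 RBD (51-131) complexes at 50 nM, using KRAS 2-169 as WT, G12C, G12D or G12V. After 1 h at room temperature in Tris pH 7.5 buffer with MgCl2 and 10% DMSO, time-resolved fluorescence was read. Results are percent activity versus DMSO.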

For test [2], the target named is T2, Avi-KRAS G12R (1-169) GppNHp/RAF1 RBD-3xFLAG (52-151) (Homo sapiens, UniProt P01116, G12R).
T2 construct: Avi-KRAS G12R (1-169)
As to the kind of experiment: Raf1-KRAS G12R-GppNHP disruption HTRF assay (Biological Example 1). Type of test: binding. The procedure, abridged: (§1)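 Measured with a KRAS/RAF1 HTRF assay at pH 7.5 in 10% DMSO, with two 1 h room-temperature incubations with shaking.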

The target of test [3] is T3, Avi-KRAS WT (1-169) GppNHp/RAF1 RBD-3xFLAG (52-151) (Homo sapiens, UniProt P01116).
T3 construct: Avi-KRAS WT (1-169)
Briefly: Raf1-KRAS WT-GppNHP disruption HTRF assay (Biological Example 1). Type of test: binding. The procedure, abridged:
as §1

The next test has as its system GP2d cells (KRAS G12D). As to the kind of experiment: Cell-based pERK HTRF assay in GP2d cell (Biological Example 2). As to conditions: GP2d (KRAS G12D) cells. The procedure, abridged: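 Cells grown in DMEM with 10% FBS were exposed to compound for 60 min at 0.25% DMSO, using a 9-point half-log series starting at 1 μM or 100 nM. Lysates were then mixed with d2 and Eu cryptate antibodies for 4–24 h at room temperature, and pERK was read by HTRF.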

The target of test [4] is T4, Avi-KRAS G12D (1-169) GppNHp/RAF1 RBD-3xFLAG (52-151) (Homo sapiens, UniProt P01116, G12D).
T4 construct: Avi-KRAS G12D (1-169)
As to the kind of experiment: Raf1-KRAS G12D-GppNHP disruption HTRF assay (Biological Example 1). Type of test: binding. The procedure, abridged: as §1
In general terms: In TR-FRET formats the signal depends on donor and acceptor labels being close together.

Where [5] appears, read: KRAS G12R, GppNHp-loaded, class symbols.
Setting [6] is: KRAS WT, GppNHp-loaded, class symbols.
Setting [7] is: KRAS G12D, GppNHp-loaded, class symbols.

T4 sequence (P01116 1-169 isoform P01116-2 G12D): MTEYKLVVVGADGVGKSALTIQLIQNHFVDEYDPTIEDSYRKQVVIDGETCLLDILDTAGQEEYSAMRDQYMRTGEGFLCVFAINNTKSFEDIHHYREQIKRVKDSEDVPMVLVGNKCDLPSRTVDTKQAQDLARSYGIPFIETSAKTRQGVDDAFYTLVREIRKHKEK
T1 sequence (P01116 2-169 isoform P01116-2 G12V): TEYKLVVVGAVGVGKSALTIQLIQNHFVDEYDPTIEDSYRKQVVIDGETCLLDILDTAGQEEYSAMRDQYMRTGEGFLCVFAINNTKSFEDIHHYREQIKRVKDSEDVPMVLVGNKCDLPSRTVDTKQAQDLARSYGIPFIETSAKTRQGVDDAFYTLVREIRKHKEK
T2 sequence (P01116 1-169 isoform P01116-2 G12R): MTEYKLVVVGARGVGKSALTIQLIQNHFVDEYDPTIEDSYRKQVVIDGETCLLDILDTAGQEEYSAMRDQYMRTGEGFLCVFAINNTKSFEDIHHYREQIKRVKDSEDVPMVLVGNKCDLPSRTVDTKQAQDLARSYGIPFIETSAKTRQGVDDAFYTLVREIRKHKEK
T3 sequence (P01116 1-169 isoform P01116-2): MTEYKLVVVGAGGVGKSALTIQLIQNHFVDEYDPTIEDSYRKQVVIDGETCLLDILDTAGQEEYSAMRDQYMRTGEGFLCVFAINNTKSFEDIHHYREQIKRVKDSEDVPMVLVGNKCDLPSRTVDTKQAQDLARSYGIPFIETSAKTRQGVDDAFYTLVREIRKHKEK

In the case of `[2H]C1([2H])O[C@@H]2C[C@H]1N(c1nc(OC[C@@]34CCCN3C[C@H](F)C4)nc3c(F)c(-c4ccc(F)c5sc(N)c(C#N)c45)c(C(F)(F)F)cc13)C2` [Compound 371], the IC50 in test [1] is 1000 to 10000 nM; in test [2] (KRAS G12R-GppNHp/RAF1 RBD HTRF), 100 to 1000 nM; in test [3] (KRAS WT-GppNHp/RAF1 RBD HTRF), 100 to 1000 nM; in the test on GP2d cells (KRAS G12D) (GP2d), less than 100 nM; with GP2d cells (KRAS G12D) (GP2d, pERK HTRF), less than 100 nM; in test [4] (KRAS G12D-GppNHp/RAF1 RBD HTRF), 100 to 1000 nM.

On to `CCN(c1nc(OC[C@@]23CCCN2C[C@H](F)C3)nc2c(F)c(-c3ccc(F)c4sc(N)c(C#N)c34)c(C(F)(F)F)cc12)[C@H]1CCN(C(=O)OC)C1` [Compound 394], for which the IC50 in test [1] is 100 to 1000 nM; in test [2] (KRAS G12R-GppNHp/RAF1 RBD HTRF), less than 100 nM; in test [3] (KRAS WT-GppNHp/RAF1 RBD HTRF), less than 100 nM; in the test on GP2d cells (KRAS G12D) (GP2d) it was less than 100 nM; in the test with GP2d cells (KRAS G12D) (GP2d, pERK HTRF), less than 100 nM; in test [4] (KRAS G12D-GppNHp/RAF1 RBD HTRF), less than 100 nM.

In the case of `CCN(c1nc(OC[C@@]23CCCN2C[C@H](F)C3)nc2c(F)c(-c3ccc(F)c4sc(N)c(C#N)c34)c(C(F)(F)F)cc12)[C@H]1CCN(C(=O)C2CC2(F)F)C1` (stereo partly drawn) [Compound 581], the IC50 was no more than 100 nM in test [1]; less than 100 nM in test [2] (setting [5]); less than 100 nM in test [3] (setting [6]); less than 100 nM in the test with GP2d cells (KRAS G12D) (GP2d); less than 100 nM in the test with GP2d cells (KRAS G12D) (GP2d, pERK HTRF, class symbols); less than 100 nM in test [4] (setting [7]).

Take `N#Cc1c(N)sc2c(F)ccc(-c3c(C(F)(F)F)cc4c(N5CCn6nc(C(=O)N7CCOCC7)cc6C5)nc(OCC56CCCN5CC(F)C6)nc4c3F)c12` (stereo not drawn) [Compound 646]: the IC50 is 100 to 1000 nM in test [1]; less than 100 nM in test [2] (setting [5]); 100 to 1000 nM in test [3] (setting [6]); less than 100 nM in the test with GP2d cells (KRAS G12D) (GP2d); less than 100 nM in the test with GP2d cells (KRAS G12D) (GP2d, pERK HTRF, class symbols); less than 100 nM in test [4] (setting [7]).

`CCN(c1nc(OC[C@@]23CCCN2C[C@H](F)C3)nc2c(F)c(-c3ccc(F)c4sc(N)c(C#N)c34)c(C(F)(F)F)cc12)[C@H]1CCN(C(=O)C2C[C@@H]2F)C1` (stereo partly drawn) [Compound 692]: the IC50 in test [1] is no more than 100 nM; in test [2] (setting [5]), less than 100 nM; in test [3] (setting [6]), less than 100 nM; in the test on GP2d cells (KRAS G12D) (GP2d) it was less than 100 nM; in the test with GP2d cells (KRAS G12D) (GP2d, pERK HTRF, class symbols), less than 100 nM; in test [4] (setting [7]), less than 100 nM.

For `N#Cc1c(N)sc2c(F)ccc(-c3c(C(F)(F)F)cc4c(N(C5CC5)[C@H]5CCS(=O)(=O)C5)nc(OC[C@@]56CCCN5C[C@H](F)C6)nc4c3F)c12` [Compound 702], the IC50 in test [1] was greater than 10000 nM; in test [2] (setting [5]), 1000 to 10000 nM; in test [3] (setting [6]) it was 1000 to 10000 nM; in the test with GP2d cells (KRAS G12D) (GP2d), less than 100 nM; in the test on GP2d cells (KRAS G12D) (GP2d, pERK HTRF, class symbols), less than 100 nM; in test [4] (setting [7]), 1000 to 10000 nM.

Regarding `CCN(c1nc(OC[C@]23CCCN2C[C@H](F)C3)nc2c(F)c(-c3ccc(F)c4sc(N)c(C#N)c34)c(C(F)(F)F)cc12)[C@H]1CCN(C(=O)C(C)C)C1` [Compound 705], the IC50 is 100 to 1000 nM in test [1]; less than 100 nM in test [2] (setting [5]); less than 100 nM in test [3] (setting [6]); less than 100 nM in the test with GP2d cells (KRAS G12D) (GP2d); less than 100 nM with GP2d cells (KRAS G12D) (GP2d, pERK HTRF, class symbols); less than 100 nM in test [4] (setting [7]).

With `CCN(c1nc(OC[C@@H]2C[C@@H](OC)CN2C)nc2c(F)c(-c3ccc(F)c4sc(N)c(C#N)c34)c(C(F)(F)F)cc12)[C@H]1CCN(C(=O)C(C)C)C1` [Compound 706], the IC50 was 1000 to 10000 nM in test [1]; 100 to 1000 nM in test [2] (setting [5]); 100 to 1000 nM in test [3] (setting [6]); less than 100 nM in the test with GP2d cells (KRAS G12D) (GP2d); less than 100 nM in the test on GP2d cells (KRAS G12D) (GP2d, pERK HTRF, class symbols); 100 to 1000 nM in test [4] (setting [7]).

Take `CCN(c1nc(OCC23CCCN2CC(F)C3)nc2c(F)c(-c3ccc(F)c4sc(N)c(C#N)c34)c(C(F)(F)F)cc12)C1CC(C)N(C(=O)C2CC2(F)F)C1` (stereo not drawn) [Compound 732]: the IC50 was 100 to 1000 nM in test [1]; less than 100 nM in test [2] (setting [5]); 100 to 1000 nM in test [3] (setting [6]); less than 100 nM in the test on GP2d cells (KRAS G12D); less than 100 nM in the test with GP2d cells (KRAS G12D) (pERK HTRF, class symbols); less than 100 nM in test [4] (setting [7]).

Regarding `Cc1c(C(=O)N2CCOCC2)nn2c1CN(c1nc(OCC34CCCN3CC(F)C4)nc3c(F)c(-c4ccc(F)c5sc(N)c(C#N)c45)c(C(F)(F)F)cc13)CC2` (stereo not drawn) [Compound 741], the IC50 in test [1] is 100 to 1000 nM; in test [2] (setting [5]), 100 to 1000 nM; in test [3] (setting [6]), 100 to 1000 nM; in the test with GP2d cells (KRAS G12D) (GP2d), less than 100 nM; with GP2d cells (KRAS G12D) (GP2d, pERK HTRF, class symbols), less than 100 nM; in test [4] (setting [7]) it was less than 100 nM.
